From patent publication US10072044B2, “Modified kisspeptin peptides and uses thereof” (Yeda Research and Development Co. Ltd., priority 2012, dated 2018)
Entries after “also recorded” stand apart in the source; their conditions may differ. Bridge positions count the residues as written; N and C are the ends. Ends that are not written are not given here.

Tests used:
[1] = tested on: mice; assay: Catalepsy (bar test); format: in vivo, mouse
Description: Catalepsy is a state of immobility, and was measured by means of the bar test. The forepaws of the animal were placed on a bar (0.75 cm in diameter and 5 cm above the floor) and the latency until the mouse moved the forepaws off the bar was measured.

[2] = tested on: mice; assay: Rotarod (forced activity); format: in vivo, mouse
Description: Forced activity (Rotarod) was analyzed using the Rotarod apparatus (Jones and Roberts 7650, Ugo Basile, Italy). Animals were placed on an accelerating rod, and time required for each mouse to fall from the rod was recorded. Out of three trails, the longest time taken for an animal to fall from the rod was recorded and used for analysis.

[3] = tested on: mice; assay: Open-field test (spontaneous activity); format: in vivo, mouse
Text: The open-field apparatus consisted of a white Plexiglas box (40×40×30 cm) with 16 squares (10×10 cm) painted on the floor (12 outer and 4 inner). Each mouse was placed in the center of the apparatus to initiate a 15-min test session. The number of entrances to the inner squares, time (min) spent in the inner squares, and total distance moved within the field (cm) were monitored.

[4] = tested on: MK-801 treated C57BL/6J mice; assay: PPI in the MK-801 drug-induced model of schizophrenia; format: in vivo, mouse
Description: MK-801 (Sigma) was used at 0.1 mg/kg and administered 15 min prior to the PPI analysis.
(§1) Acoustic startle response testing was performed within startle chambers purchased from Med Associates, Inc. (Med Associates, St. Albans, Vt., USA), as described in Cardon et al., 2010. During a period of acclimation, a 65-decibel (dB) background noise was presented for 5-min, and continued throughout the test session. All sessions for testing of acoustic startle response consisted of startle trials (pulse alone, 40-milliseconds (ms), 120-dB), prepulse trials (prepulse 20-ms, 69, 73, 78, or 81 dB followed by a [100-ms delay] pulse), and no-stimulus trials. All sessions were presented in pseudo-random order. The average time between trials was 15 seconds (range 12-30 seconds). Startle response was calculated from the reaction to the first pulse-alone trial.
(§2) PPI was calculated as: % PPI=100−{[(startle response for prepulse+pulse)/(startle response for pulse-alone)]×100}. Reduced PPI indicates schizophrenia-related behavior.
MK-801 (an antagonist of the N-methyl-D-aspartate (NMDA) receptor channel) acts as a psychomimetic agent, inducing psychotic symptoms that mimic the cognitive impairment and behavioral abnormalities associated with schizophrenia.
The neurotransmitter imbalance induced by MK-801 causes PPI dysfunction, one of the characteristic features of patients with schizophrenia. In an experiment depicted in FIG. 2, C57BL/6J mice were injected with Kp-10 (13 μg/mouse, light gray bars), or with Peptides 6 (8.75 μg/mouse, medium gray bars) or 8 (8.75 μg/mouse, dark gray bars) dissolved in DMSO and then diluted in PBS to a final concentration of 0.2% (w/v) DMSO; the control group received 0.2% DMSO in PBS (black bars). After 15 min, MK-801 (0.1 mg/kg) was injected; 15 min later, measurement of the PPI was performed.

[5] = tested on: mice; assay: Sedative effect (sedative score); settings: data not shown
Description: Sedative effect was evaluated by observing the mice and scoring their sedative state as follows: 0, spontaneous movement; 1, mild intermittent spontaneous movement; 2, severe intermittent spontaneous movement; 3, no spontaneous movement; 4, loss of auditory reflex; 5, loss of corneal reflex; 6, loss of response to tail pinch.
Sedative effect was evaluated by observing the animal using a sedative score.

[6] = Plasma stability (HPLC, Cerep); format: in vitro ADME; settings: 1 μM in human plasma
Description: 1 μM Peptide 6 was dissolved in human plasma, and peptide concentration was analyzed by HPLC after 0, 0.5, 1, 1.5, 2 h of incubation. The assay was performed by Cerep, Inc (Redmond, Wash., U.S.A).

[7] = tested on: C57Bl/6J naïve mice; assay: Acoustic startle response / prepulse inhibition (PPI) in naïve mice; format: in vivo, mouse; settings: 30 min before test, prepulse 69, 73, 78 or 81 dB
Description: as §1, §2
To test Peptide 2 (SEQ ID NO: 10), the peptide was dissolved in DMSO and then diluted in PBS to a final concentration of 1% (w/v) DMSO. Male C57Bl/6J naïve mice were injected intraperitoneally with 15 μg of the peptide or with 1% DMSO in PBS (control). Prepulse intensity analysis was performed after 30 minutes at 69, 73, 78 or 81 decibels. […]

[8] = tested on: SCID mice that have impaired PPI response and several schizophrenia mouse models; settings: Kp-10 administration, WO 2010/137022; cited from earlier work
[9] = tested on: naïve mice; settings: Kp-10, WO 2010/137022 (FIG. 10C); dose equivalent to 0.29 mg/kg Peptide 6; cited from earlier work
[10] = tested on: several mouse models; settings: Kp-10, WO 2010/137022; cited from earlier work
[11] = Kp-10, after 60 min (Chan et al., 2011); cited from earlier work
[12] = tested on: BDNF mRNA; settings: hippocampal slices (Arai et al., 2009); cited from earlier work
[13] = 13 μg/mouse, MK-801 0.1 mg/kg after 15 min, PPI 15 min later

O=C(CCCN1CCC(O)(c2ccc(Cl)cc2)CC1)c1ccc(F)cc1 [Haloperidol]
catalepsy effect ([1]; 1 mg/kg i.p.): had catalepsy effects | forced activity in the Rotarod ([2]; 1 mg/kg i.p.): reduced mice activity | spontaneous activity in the open field ([3]; 1 mg/kg i.p.): reduced mice activity

C[C@]12N[C@H](Cc3ccccc31)c1ccccc12 [MK-801]
PPI response compared to PBS injected control ([4]; MK-801 alone 0.1 mg/kg, 15 min before PPI): the PPI response was reduced compared to the PBS injected control

Cc1cc2c(s1)Nc1ccccc1N=C2N1CCN(C)CC1 [Olanzapine]
highest dose that can be injected without causing sedative effects (chosen dose) [5]: 0.375 mg/kg

CC(C)C[C@@H]1NC(=O)CNC(=O)[C@H](Cc2ccccc2)NC(=O)[C@@H](N)Cc2ccc(cc2)N=Nc2cc(ccc2O)C[C@@H](C(N)=O)NC(=O)[C@H](Cc2c[nH]c3ccccc23)NC(=O)[C@H](CCCNC(=N)N)NC1=O [Peptide 6, Pap-Phe-Gly-Leu-Arg-Trp-Tyr-NH2]
catalepsy effect ([1]; 0.29 and 2.9 mg/kg i.p.): did not have catalepsy effect at either dosage tested | forced activity in the Rotarod ([2]; 0.29 and 2.9 mg/kg i.p.): did not affect activity level | spontaneous activity in the open field ([3]; 0.29 and 2.9 mg/kg i.p.): did not affect activity level | % Mean Compound Remaining ([6]; incubation time 0 minutes): 100.0% | remaining at 0.5 h, 1 μM ([6]; incubation time 30 minutes, read-out: % Mean Compound Remaining): 119% | % Mean Compound Remaining ([6]; incubation time 60 minutes): 94% | remaining at 1 h, 1 μM ([6]; incubation time 60 minutes, read-out: % Mean Compound Remaining): 93.7% | remaining at 1.5 h, 1 μM ([6]; incubation time 90 minutes, read-out: % Mean Compound Remaining): 97.2% | remaining at 2 h, 1 μM ([6]; incubation time 120 minutes, read-out: % Mean Compound Remaining): 71.8% | half-life ([6]; read-out: calculated half-life): > 2 h

Cc1nc2n(c(=O)c1CCN1CCC(c3noc4cc(F)ccc34)CC1)CCCC2 [Risperidone]
PPI in MK-801 treated mice ([4]; 0.1 mg/kg i.p. with MK-801 (FIG. 4B)): elevated PPI in the MK-801 treated mice | highest dose that can be injected without causing sedative effects (chosen dose) [5]: 0.1 mg/kg

Peptide 2: cystine (S—S) cyclic modified Kp-10 derived peptide, used for comparison only (CYNWNSFGLRFC-NH2; disulfide 1-12; N-terminus assumed; SMILES CC(C)C[C@@H]1NC(=O)CNC(=O)[C@H](Cc2ccccc2)NC(=O)[C@H](CO)NC(=O)[C@H](CC(N)=O)NC(=O)[C@H](Cc2c[nH]c3ccccc23)NC(=O)[C@H](CC(N)=O)NC(=O)[C@H](Cc2ccc(O)cc2)NC(=O)[C@@H](N)CSSC[C@@H](C(N)=O)NC(=O)[C@H](Cc2ccccc2)NC(=O)[C@H](CCCNC(=N)N)NC1=O)
% PPI relative to controls ([7]; 15 μg peptide i.p. in 1% DMSO in PBS): slightly improved the % PPI relative to controls, however, the effect was not significant; also recorded: did not significantly improve the PPI response

Peptide 5: cystine (S—S) cyclic modified Kp-10 derived peptide, used for comparison only (CFGLRWC-NH2; disulfide 1-7; N-terminus assumed; SMILES CC(C)C[C@@H]1NC(=O)CNC(=O)[C@H](Cc2ccccc2)NC(=O)[C@@H](N)CSSC[C@@H](C(N)=O)NC(=O)[C@H](Cc2c[nH]c3ccccc23)NC(=O)[C@H](CCCNC(=N)N)NC1=O)
% PPI relative to controls ([7]; 8.3 μg peptide i.p. in 1% DMSO in PBS): slightly improved the % PPI at 73, 78 and 81 decibels relative to controls, however, the effect was not significant; also recorded: did not significantly improve the PPI response

YNWNSFGLRF-NH2 [Kp-10]
PPI response levels [8]: improved PPI response levels | antidepressant effect / total immobility in tail suspension test [9]: antidepressant effect; also recorded: potential anti-depressive activity; also recorded: reduced the total immobility | PPI compared to MK-801 treated animals [4, 13]: significantly improved PPI compared to the MK-801 treated animals; also recorded: significantly improved PPI compared to animals treated only with MK-801 | PPI compared to control without MK-801 (restoration to normal) [4, 13]: improved PPI after MK-801 administration but did not abolish its affect | spatial learning and memory in a water maze [10]: improves spatial learning and memory in a water maze | level after 60 min [11]: below detectable level | BDNF mRNA levels [12]: elevate BDNF mRNA levels
